Measurements from patent US20080206761A1, “Ex Vivo Gene Expression in Whole Blood as a Model of Assessment of Individual Variation to Dietary Supplements” (priority 2005, published 2008).

Tests used:
Assay type in all cases: cell-based, human
IL-2 mRNA = assay: PHA-induced IL-2 mRNA expression in heparinized whole blood ex vivo; details: for ΔΔCt (mean ± standard deviation, n = 3), IL-2 mRNA: supplement 30 min, concentrations per footnote; for effect on PHA-induced IL-2 expression, in words: summary over 7 subjects of Table I
Method: (§1) In this embodiment, phytohemagglutinin-induced gene expression of interleukin-2 (IL-2), interleukin-4 (IL-4), and tumor necrosis factor-α (TNF-α) were quantitated in the following manner. Fifty μL of heparinized whole blood was incubated with various dietary supplements for a period of 30 minutes. The following supplements were employed: vitamins A, C, and D, epigallocatechin gallate (from green tea), genistein (from soy), and curcumin (from the spice turmeric). Vitamin A is known to stimulate the immune system. […] Vitamin D appears to have protective effects against certain cancers. Epigallocatechin gallate is a powerful antioxidant, appears to reduce the multidrug resistance found in cancer cells, and preferentially induces apoptosis in neoplastic cells. Genistein has been found in some studies to have anticarcinogenic activity; possible mechanisms of action include upregulation of apoptosis, inhibition of angiogenesis, inhibition of DNA topoisomerase II and inhibition of protein tyrosine kinases. Curcumin has proapoptotic effects in neoplastic cells and interferes with the activity of the transcription factor NF-κB, which is often highly overexpressed in such cells.
(§2) After incubation with the dietary supplement, 100 μg/mL phytohemagglutinin (PHA) was added and incubation was continued for an additional 2 hours at 37° C. The concentration of each dietary supplement (see Table I, note) was slightly higher than reported blood levels. Then mRNA was purified, cDNA was synthesized, and the levels of IL-2, IL-4, and TNF-α were quantitated by TaqMan real time polymerase chain reaction (PCR) (see Holland, et al., “Detection of specific polymerase chain reaction product by utilizing the 5′ to 3′ exonuclease activity of Thermus aquaticus DNA polymerase,” Proc Natl Acad Sci USA 1991; 88: 7276-80), as described below.
(§3) The mRNA and cDNA were prepared from the whole blood that was exposed to the dietary components, as well as the whole blood which remained unexposed. In brief, home-made 96-well filterplates were placed over collection plates, and 150 μl 5 mM Tris, pH 7.4, was applied. Following centrifugation at 120×g for 1 min at 4° C., 50 μl of blood samples were applied to each well and immediately centrifuged at 120×g for 2 min at 4° C., followed by washing of each well with 300 μl PBS once with centrifugation at 2000×g for 5 min at 4° C. Then, 60 μl stock lysis buffer, containing for example 0.5% N-Lauroylsarcosine, 4×SSC, 10 mM Tris HCl, pH 7.4, 1 mM EDTA, 0.1% IGEPAL CA-630, and 1.791 M guanidine thiocyanate, supplemented with 1% 2-mercaptoethanol (Bio Rad, Hercules, Calif., USA), 0.5 mg/ml proteinase K (Pierce, Rockford, Ill., USA), 0.1 mg/ml salmon sperm DNA (5 Prime Eppendorf/Brinkmann, Westbury, N.Y., USA), 0.1 mg/ml E. coli tRNA (Sigma), a cocktail of 10 mM each of the specific reverse primers shown in Table 2, and standard RNA34 oligonucleotides, were applied to the filterplates, followed by incubation at 37° C. for 10 min. The filterplates were then placed over oligo(dT)-immobilized microplates (GenePlate, RNAture), and centrifuged at 2000×g for 5 min at 4° C. Following overnight storage at 4° C., the microplates were washed with 100 μl plain lysis buffer 3 times, followed by 150 μl of wash buffer (0.5 M NaCl, 10 mM Tris, pH 7.4, 1 mM EDTA) 3 times at 4° C. The cDNA was directly synthesized in each well by adding 30 μl of buffer containing 1×RT-buffer, 1.25 mM each of dNTP, 4 units rRNasin, and 80 units of MMLV reverse transcriptase (Promega) (without primers), and incubation at 37° C. for 2 hours. The specific primer-primed cDNA existed in solution, and oligo(dT)-primed cDNA stayed immobilized in the microplate. […]

IL-4 mRNA = assay: PHA-induced IL-4 mRNA expression in heparinized whole blood ex vivo; details: for ΔΔCt (mean ± standard deviation, n = 3), IL-4 mRNA: supplement 30 min, then 100 μg/mL PHA 2 h, concentrations per footnote; for effect on PHA-induced IL-4 expression, in words: summary over 7 subjects of Table I
Method: as §1, §2, §3

TNF-α mRNA = assay: PHA-induced TNF-α mRNA expression in heparinized whole blood ex vivo; details: for ΔΔCt (mean ± standard deviation, n = 3), TNFα mRNA: supplement 30 min, then 100 μg/mL PHA 2 h, concentrations per footnote; for effect on PHA-induced TNF-α expression, in words: summary over 7 subjects of Table I
Method: as §1, §2, §3

[1] = tested on: CD32A mRNA (IgG Fc receptor); assay: CD32A mRNA level in leukocytes after exposure of whole blood to dietary components (no stimulating agent); details: one individual; 3 hours at 37° C.; PBS control
Method: In brief, home-made 96-well filterplates were placed over collection plates, and 150 μl 5 mM Tris, pH 7.4, was applied. Following centrifugation at 120×g for 1 min at 4° C., 50 μl of blood samples were applied to each well and immediately centrifuged at 120×g for 2 min at 4° C., followed by washing of each well with 300 μl PBS once with centrifugation at 2000×g for 5 min at 4° C. […] The filterplates were then placed over oligo(dT)-immobilized microplates (GenePlate, RNAture), and centrifuged at 2000×g for 5 min at 4° C. Following overnight storage at 4° C., the microplates were washed with 100 μl plain lysis buffer 3 times, followed by 150 μl of wash buffer (0.5 M NaCl, 10 mM Tris, pH 7.4, 1 mM EDTA) 3 times at 4° C. […] The specific primer-primed cDNA existed in solution, and oligo(dT)-primed cDNA stayed immobilized in the microplate. […] Each gene was amplified in separate wells. The Ct was determined by analytical software (SDS, ABI).

[2] = Subject 1, then 100 μg/mL PHA 2 h 37° C., negative = increased expression
[3] = Subject 2, then 100 μg/mL PHA 2 h
[4] = Subject 3, then 100 μg/mL PHA 2 h
[5] = Subject 4, then 100 μg/mL PHA 2 h
[6] = Subject 5, then 100 μg/mL PHA 2 h
[7] = Subject 6, then 100 μg/mL PHA 2 h
[8] = Subject 7, then 100 μg/mL PHA 2 h

Row | Compound | ΔΔCt (mean ± standard deviation, n = 3), IL-2 mRNA (IL-2 mRNA; [2]) | ΔΔCt (mean ± standard deviation, n = 3), IL-2 mRNA (IL-2 mRNA; [3]) | ΔΔCt (mean ± standard deviation, n = 3), IL-2 mRNA (IL-2 mRNA; [4]) | ΔΔCt (mean ± standard deviation, n = 3), IL-2 mRNA (IL-2 mRNA; [5]) | ΔΔCt (mean ± standard deviation, n = 3), IL-2 mRNA (IL-2 mRNA; [6]) | ΔΔCt (mean ± standard deviation, n = 3), IL-2 mRNA (IL-2 mRNA; [7]) | ΔΔCt (mean ± standard deviation, n = 3), IL-2 mRNA (IL-2 mRNA; [8]) | ΔΔCt (mean ± standard deviation, n = 3), IL-4 mRNA (IL-4 mRNA; Subject 1) | ΔΔCt (mean ± standard deviation, n = 3), IL-4 mRNA (IL-4 mRNA; Subject 2) | ΔΔCt (mean ± standard deviation, n = 3), IL-4 mRNA (IL-4 mRNA; Subject 3) | ΔΔCt (mean ± standard deviation, n = 3), IL-4 mRNA (IL-4 mRNA; Subject 4) | ΔΔCt (mean ± standard deviation, n = 3), IL-4 mRNA (IL-4 mRNA; Subject 5) | ΔΔCt (mean ± standard deviation, n = 3), IL-4 mRNA (IL-4 mRNA; Subject 6) | ΔΔCt (mean ± standard deviation, n = 3), IL-4 mRNA (IL-4 mRNA; Subject 7) | effect on PHA-induced IL-4 expression, in words (IL-4 mRNA) | ΔΔCt (mean ± standard deviation, n = 3), TNFα mRNA (TNF-α mRNA; Subject 1) | ΔΔCt (mean ± standard deviation, n = 3), TNFα mRNA (TNF-α mRNA; Subject 2) | ΔΔCt (mean ± standard deviation, n = 3), TNFα mRNA (TNF-α mRNA; Subject 3) | ΔΔCt (mean ± standard deviation, n = 3), TNFα mRNA (TNF-α mRNA; Subject 4) | ΔΔCt (mean ± standard deviation, n = 3), TNFα mRNA (TNF-α mRNA; Subject 5) | further results
1 | COc1cc(/C=C/C(=O)CC(=O)/C=C/c2ccc(O)c(OC)c2)ccc1O [Cur., curcumin] | 1.47 ± 0.59 | 2.51 ± 0.23 | 0.31 ± 0.14 | 0.33 ± 0.27 | 0.03 ± 0.20 | 0.01 ± 0.14 | −0.01 ± 0.21 | 1.27 ± 0.78 | 3.09 ± 0.15 | −0.01 ± 0.07 | 0.10 ± 0.27 | 0.00 ± 0.20 | 0.10 ± 0.13 | 0.52 ± 0.26 | significantly decreased IL-2, IL-4, and TNF-α expression in 2 cases | 3.52 ± 1.84 | 3.64 ± 2.26 | 0.83 ± 0.60 | 0.45 ± 0.15 | 0.13 ± 0.17 | effect on PHA-induced IL-2 expression, in words (IL-2 mRNA): significantly decreased IL-2, IL-4, and TNF-α expression in 2 cases; ΔΔCt (mean ± standard deviation, n = 3), TNFα mRNA (TNF-α mRNA; Subject 6): 0.07 ± 0.01; ΔΔCt (mean ± standard deviation, n = 3), TNFα mRNA (TNF-α mRNA; Subject 7): 0.12 ± 0.21; effect on PHA-induced TNF-α expression, in words (TNF-α mRNA): significantly decreased IL-2, IL-4, and TNF-α expression in 2 cases
2 | O=C(O[C@@H]1Cc2c(O)cc(O)cc2O[C@@H]1c1cc(O)c(O)c(O)c1)c1cc(O)c(O)c(O)c1 [EGCG, epigallocatechin gallate] | −0.1 ± 0.02 | −0.67 ± 0.48 | 1.32 ± 0.54 | 0.81 ± 0.11 | −0.99 ± 0.33 | 1.1 ± 0.14 | −0.41 ± 0.29 | −1.83 ± 0.20 | −1.56 ± 0.46 | −0.82 ± 0.34 | 0.92 ± 0.25 | −1.37 ± 0.3 | −0.9 ± 0.01 | −1.47 ± 0.41 | enhanced PHA-induced IL-4 expression in all 7 cases | −1.14 ± 0.32 | −0.63 ± 0.66 | 0.33 ± 0.62 | −0.16 ± 0.12 | −1.22 ± 0.29 | effect on PHA-induced IL-2 expression, in words (IL-2 mRNA): 3 out of 7 persons showed decreases, 1 showed an increase, and 3 were unchanged; ΔΔCt (mean ± standard deviation, n = 3), TNFα mRNA (TNF-α mRNA; Subject 6): −0.66 ± 0.14; ΔΔCt (mean ± standard deviation, n = 3), TNFα mRNA (TNF-α mRNA; Subject 7): −0.94 ± 0.46; effect on PHA-induced TNF-α expression, in words (TNF-α mRNA): showed individual variations; conclusion from CD32A mRNA levels (FIG. 2), in words [1]: would be suitable for use in this individual in a diet optimized for anti-cancer activity
3 | O=C1O[C@H]([C@@H](O)CO)C(O)=C1O [VC, vitamin C] | −0.18 ± 0.54 | 0.00 ± 0.60 | 1.04 ± 0.21 | 1.47 ± 0.19 | −0.80 ± 0.13 | 1.02 ± 0.05 | 0.07 ± 0.27 | −2.20 ± 0.72 | −0.86 ± 0.62 | −0.77 ± 0.40 | −0.43 ± 0.17 | −1.22 ± 0.17 | −0.77 ± 0.09 | −1.30 ± 0.22 | enhanced IL-4 expression, with 1-3 exceptions | −1.82 ± 0.65 | 0.10 ± 1.14 | −0.04 ± 0.27 | 0.09 ± 0.16 | −1.21 ± 0.14 | ΔΔCt (mean ± standard deviation, n = 3), TNFα mRNA (TNF-α mRNA; Subject 6): −0.48 ± 0.04; ΔΔCt (mean ± standard deviation, n = 3), TNFα mRNA (TNF-α mRNA; Subject 7): −0.40 ± 0.15
4 | CCCCC/C=C\C/C=C\C/C=C\CCCCC(=O)O [γ-linoleic acid, γ-linoleic acids] |  |  |  |  |  |  |  |  |  |  |  |  |  |  |  |  |  |  |  |  | conclusion from CD32A mRNA levels (FIG. 2), in words [1]: would be suitable for use in this individual in a diet optimized for anti-cancer activity
5 | vitamin D [VD] | −0.13 ± 0.07 | 0.06 ± 0.40 | 0.00 ± 0.15 | −0.31 ± 0.30 | −0.45 ± 0.61 | −0.55 ± 0.14 | −0.86 ± 0.12 | −0.17 ± 1.0 | 0.06 ± 0.15 | −0.77 ± 0.40 | −0.43 ± 0.17 | −1.22 ± 0.17 | −0.77 ± 0.09 | −1.30 ± 0.22 | enhanced IL-4 expression, with 1-3 exceptions | −0.25 ± 1.47 | 0.14 ± 0.40 | −0.04 ± 0.27 | 0.09 ± 0.16 | −1.21 ± 0.14 | ΔΔCt (mean ± standard deviation, n = 3), TNFα mRNA (TNF-α mRNA; Subject 6): −0.48 ± 0.04; ΔΔCt (mean ± standard deviation, n = 3), TNFα mRNA (TNF-α mRNA; Subject 7): −0.40 ± 0.15; conclusion from CD32A mRNA levels (FIG. 2), in words [1]: would be suitable for use in this individual in a diet optimized for anti-cancer activity
6 | vitamin E |  |  |  |  |  |  |  |  |  |  |  |  |  |  |  |  |  |  |  |  | conclusion from CD32A mRNA levels (FIG. 2), in words [1]: would be suitable for use in this individual in a diet optimized for anti-cancer activity
